Earlier results, collected in article PMC4273976 (ACS chemical biology, 2014).

System: EphA4-dependent growth cone collapse
Conditions: 5 μM peptide, nasal retinal explants; cited from earlier work

Sequence: KYLPYWPVLSSL
- inhibition of ephrin-A5-induced growth cone collapse: blocked
